Results: publication PMC13050480, “Preclinical Development of GT-14, a Novel Inhibitor of Gαi2 Protein: Comprehensive Evaluation of Physicochemical, Metabolic Characteristics and Tissue Distribution” (The AAPS journal, 2025)
In brackets after ≈: the same amount, converted by molar mass. Several values for one entry are separate records, joined by “and”; a condition that tells them apart may be missing. Equal entries are not always repeated. Where two headings read alike, the source gives them in different places.

Legend:
[1] = Cosolvent formulation: solubility, saline dilution and storage stability; format: physicochemical; conditions: for solubility: organic solvent or mixture
Method: Co-solvent systems with various compositions and ratios of PEG 400, PEG 300, and propylene glycol were prepared to solubilize 5–10 mg/mL of GT-14. Each system was diluted with normal saline at different ratios of 1:1, 1:3, 1:7, and 1:15 (v/v) and observed for signs of precipitation for 4 h. The cosolvent system with maximum solubility and aqueous tolerance was tested for stability at different temperatures (−20°C, 4°C, and room temperature) in amber glass vials for up to a month. Samples were aliquoted at different time points and analyzed with UPLC.

[2] = design: method as in PMID 38744031; conditions: rat, cited from earlier work
DU145 = system: DU145; design: method as in PMID 32575572; conditions: cited from earlier work
LNCaP cells = system: LNCaP cells; design: method as in PMID 38254786; conditions: simultaneous treatment; cited from earlier work
[3] = Bi-directional transport study in Caco-2 cell culture model; format: in vitro ADME, human; conditions: human, donor 10 μM
Method: (§1) Caco-2 cells were cultivated as described previously with slight modification ([12]). Briefly, a cell monolayer was prepared by seeding 400,000 cells per insert (Nunc, surface area 4.2 cm^2, 3 μm pore size). Cells were maintained at 37°C under 90% humidity and 5% CO2. Monolayers were used between 19 and 22 days after seeding. The integrity of each monolayer was checked by measuring the transepithelial electrical resistance (Millicell ERS®) before the experiment. The normal TEER values obtained were above 400 Ω·cm^2. Cell monolayers with TEER values less than 400 Ω·cm^2 were not used. Hank’s balanced salt solution (HBSS) (9.8 g/L) was supplemented with NaHCO3 (0.37 g/L), HEPES (5.96 g/L), and glucose (3.5 g/L) for all experiments, after adjusting the pH to the desired value.
(§2) For transport studies, 2.5 mL of GT-14 testing solution (10 μM) in HBSS (pH 7.4) was added to the apical side (A to B transport) or the basolateral side (B to A transport). Five donor samples (200 μL) and five receiver samples (200 μL) were taken at 0, 1, 2, 3, and 4 h followed by the addition of 200 μL of GT-14 test solution to the donor or 200 μL of blank HBSS buffer to the receiver side. Then, 100 μl of an ACN containing internal standard was added to the samples right after sampling. The TEER was measured at the end of the study, and the cell layer was washed carefully using cold blank HBSS 3 times, then cut and sonicated for 30 min in 1.0 mL of blank HBSS for intracellular GT-14 concentration measurement. All samples were centrifuged at 15,000 rpm for 15 min at 4°C for UPLC analysis.
(§3) The apparent permeability coefficient and efflux ratio were obtained according to the following equations: […]

Caco-2 cell monolayers = assay: as above; format: in vitro ADME, human
Method: as §1, §2, §3

liver microsomes = assay: Phase II glucuronidation reaction with liver microsomes; format: in vitro ADME; conditions: UDPGA, 2 h
Method: The in vitro phase II glucuronidation reaction was carried out using a published protocol that involves the use of uridine diphosphate glucuronic acid (UDPGA) as cofactor, saccharolactone as beta-glucuronidase inhibitor to drive the forward reaction to release the metabolite, potassium phosphate buffer (KPI) to mimic physiological conditions, and alamethicin as a surfactant for the response. The components were pipetted into microcentrifuge tubes in the following order: GT-14 testing solution in KPI (pH 7.4), solution B (25 mM saccharolactone and 5 mM magnesium chloride), solution A (25 mM uridine diphosphate glucuronic acid and potassium chloride), microsome. Samples (100 μL) were taken at 2 h. The reaction was terminated with 50 μL of solution containing 0.6% formic acid in acetonitrile + internal standard (rutin) at each time point and vortexed for 1 min. The samples were then centrifuged at 14,000 rpm for 15 min. The supernatant (100 μL) was then collected and loaded into the UPLC for analysis.

PC3 cells = conditions: cited from earlier work
[4] = pH-dependent solubility in USP buffers; format: physicochemical; conditions: standard USP buffer, aqueous buffer
Method: The pH-dependent stability of GT-14 was assessed in aqueous media of pH ranging from 1 to 10 at room temperature. Standard USP buffers ([11]) were prepared and used for this experiment. Details of buffer solutions are provided in Table I. For the pH solubility profile, GT-14 solid was added in excess amounts in various buffer solutions.

[5] = Ionization constant (pKa) determination, Pion Sirius T3, UV-metric and Fast UV titration; format: physicochemical; conditions: for pKa: 0.15 M KCl solution, 0.15 M KCl, 25 ± 1°C
Method: The Ionization constant of GT-14 was determined using the Pion Sirius T3 apparatus (Sirius Analytical Instruments Ltd., East Sussex, UK). It has an Ag/AgCl double junction reference pH electrode, a Sirius ±D-PAS spectrometer and a turbidity sensing device. The titration experiments were conducted in 0.15 M KCl solution under an argon atmosphere at a temperature of 25 ± 1°C. All tests were performed using standardized 0.5 M KOH and 0.5 M HCl as titration reagents. pKa value was measured using UV-metric and Fast UV titration methods.

Percentage Recovery, cosolvent formulation ([1]; 4°C, Day 7): 101.09 ± 2.19%
Percentage Recovery, cosolvent formulation ([1]; 4°C, Day 15): 99.14 ± 0.32%
Percentage Recovery, cosolvent formulation ([1]; 4°C, Day 30): 98.83 ± 0.15%
solubility ([1]; PEG300: PEG400: Propylene glycol (1:1:1), PEG300: PEG400: Propylene glycol, ratio 1:1:1, read-out: Solubility in cosolvent formulation): 6000 µg/mL
solubility ([1]; PEG300: PEG400: Propylene glycol (3:2:2 v/v), optimum, PEG300: PEG400: Propylene glycol, ratio 3:2:2 v/v, read-out: Solubility in cosolvent formulation (optimum)): 8000 µg/mL
increase of solubility in optimum cosolvent formulation over water solubility ([1]; PEG 300:PEG 400:propylene glycol 3:2:2): over 70 times
solubility ([1]; PEG 400: Propylene glycol: Tween 80 (2:1:0.25), PEG 400: Propylene glycol: Tween 80, ratio 2:1:0.25, read-out: Solubility in cosolvent formulation): 5000 µg/mL
Percentage Recovery, cosolvent formulation ([1]; Room Temperature, Day 7): 93.4% and 93.37± 0.76%
Percentage Recovery, cosolvent formulation ([1]; Room Temperature, Day 15): 91.18 ± 0.38%
Percentage Recovery, cosolvent formulation ([1]; Room Temperature, Day 30): 90.88 ± 0.07%
appearance of cosolvent formulation after one month ([1]; room temperature): grew a darker color
Percentage Recovery, cosolvent formulation ([1]; −20°C, Day 7): 100.32 ± 0.08%
Percentage Recovery, cosolvent formulation ([1]; −20°C, Day 15): 101.22 ± 0.27%
Percentage Recovery, cosolvent formulation ([1]; −20°C, Day 30): 101.26 ± 0.39%
efflux ratio at 4 h, 10 μM ([3]; Caco-2, pH 7.4): 1.8
Papp A→B at 4 h, 10 μM ([3]; Caco-2, HBSS pH 7.4, n=3, read-out: apical to basolateral permeability (Pa-b)): 13 ×10⁻⁶ cm/s
Papp B→A at 4 h, 10 μM ([3]; Caco-2, HBSS pH 7.4, n=3, read-out: basolateral to apical permeability (Pb-a)): 24.2 ×10⁻⁶ cm/s
BCS class (Caco-2 cell monolayers; based on low aqueous solubility and high permeability): BCS class II
predicted absorption in the GI tract in humans (Caco-2 cell monolayers; predicted from Caco-2 permeability): > 75%
Phase II glucuronidation (UPLC peaks) (liver microsomes): no additional peaks were observed
solubility thermodynamic at 24 h ([4]; between pH 5 and 7, 24 h): < 10 µg/mL
solubility thermodynamic at 24 h ([4]; pH 1.2, 24 h): ~80 µg/mL (≈ 303 µM)
solubility thermodynamic at 24 h ([4]; pH 4.6, 24 h): ~140 µg/mL (≈ 530 µM)
pKa ([5]; read-out: pKa (printed as acidic pKa, nitrogen of the imine group)): 3.46 ± 0.014
pKa ([5]; read-out: pKa (printed as basic pKa, phenolic group)): 10.5 ± 0.4
isoelectric point (pI) ([5]; pI=(pKa acid+pKa base)/2): approximately 7.0
SMILES: C/C(=N\c1ccc(O)cc1)c1cc2ccccc2n1C [GT-14, (E)-4-((1-(1-methyl-1H-indol-2-yl)ethylidene)amino)phenol]
precipitation on dilution of cosolvent formulation with saline ([1]; optimum cosolvent formulation, several ratios of saline): No precipitation was observed till a 10X dilution with saline
appearance of cosolvent formulation after one month ([1]; −20°C and 4°C): remained light yellow, without any visible particles
maximum plasma concentration (Cmax) ([2]; IV bolus 5 mg/kg, two-compartment model): approximately 200 ng/mL
terminal plasma elimination half-life ([2]; IV bolus 5 mg/kg, 5 mg/kg): 4.4678 h and 4.468 h
AUC0–∞ ([2]; IV bolus 5 mg/kg): 23,742 min*ng/mL
apparent volume of distribution (Vd) ([2]; IV bolus 5 mg/kg): 25,205 ± 2,585 mL/kg
distribution half-life ([2]; IV bolus 5 mg/kg): 0.267 h
mean systemic clearance (CL) ([2]; IV bolus 5 mg/kg): 229.9 mL/min/kg
Plasma half-life in rats ([2]; IV): 4 to 5 h
terminal plasma elimination half-life ([2]; IV): > 4 h
migratory capability of DU145 cells (DU145): significant reduction
HDACi and antiandrogen effects on cell migration in LNCaP cells (LNCaP cells): blocked
migratory capability of PC3 cells (PC3 cells): significant reduction
stimulatory effects of docetaxel (cell migration) in PC3 cells (PC3 cells; simultaneous treatment): blocked
